Measurements reported in paper PMC8035703, “Effect of Synchronous Versus Sequential Regimens on the Pharmacokinetics and Biodistribution of Regorafenib with Irradiation” (Pharmaceutics, 2021).
Where “and” joins values, the source holds several entries; their conditions need not be identical. Equal values may be shown once. Read-outs that look alike come from different tables or passages of the source. Marks after values point to notes of the source that are not given here.

Experiment: Pharmacokinetics of regorafenib in plasma of freely moving rats with or without RT (HPLC-UV)
Type: in vivo, Sprague-Dawley rats
Details: for MRT / Tmax / half-life: plasma, po, 16 mg/kg; for half-life: read-out: t½
Protocol: The Institutional Animal Experimentation Committee of National Yang-Ming University, Taipei, Taiwan, and the Institutional Animal Care and Use Committee (IACUC, approval number 1070523) reviewed and approved the protocol. The Laboratory Animal Center at National Yang-Ming University (Taipei, Taiwan) provided adult male Sprague-Dawley rats (300 ± 20 g body weight). A pathogen-free environment with a 12 h light–dark cycle, with access to water ad libitum and food (laboratory rodent diet 5P14, PMI Feeds, Richmond, IN, USA), was provided for the animals.
A freely moving rat model was designed for the current study. The rats were anaesthetized and immobilized on a board, while undergoing computed tomography for localization of the whole liver or a central area 1.5 cm × 1.5 cm in size for the SBRT technique. For the whole liver field, the cranial margin was set 5 mm from the top of the diaphragm, and the caudal margin was set 5 mm lower than the liver margin. The whole liver was targeted for irradiation. The experimental animals were randomized to groups receiving sham RT, one or three fractions of RT2 Gy and RT9 Gy with current or sequential regorafenib. Data were collected from six rats in each group.
According to the formula used to translate doses from animal to human, human equivalent dose (HED, mg/kg) = animal dose (mg/kg) × animal km/human km, we calculated the daily dose of regorafenib for rats to be 16 (mg/kg/day). The rats were randomly divided into ten groups with six rats in each group. The concurrent groups treated with regorafenib 1 h after RT, in the same day, to mimic regorafenib concurrent with RT in the daily practice. The sequential groups treated with regorafenib following RT (not in the same day), to mimic RT followed by regorafenib in the daily practice. The one fraction study group included (A) a sham group, regorafenib with RT0 Gy (regorafenib × 1 d); concurrent groups treated with regorafenib 1 h after (B) RT2 Gy with 1 fraction (RT2 Gy × 1 f’x) and (D) RT9 Gy with 1 fraction (RT9 Gy × 1 f’x); and sequential groups treated with regorafenib 24 h after (C) RT2 Gy × 1 f’x and (E) RT9 Gy × 1 f’x. Continued treatment mimicking clinical practice was applied to (A) a sham group, regorafenib (p.o. (per os), q.d. × 3 d) with RT0 Gy (regorafenib × 3 d); concurrent groups treated with regorafenib (p.o., q.d. × 3 d) 1 h after (B) RT2 Gy with 3 fractions (RT2 Gy × 3 f’x) and (D) RT9 Gy with 3 fractions (RT9Gy × 3 f’x); and sequential groups treated with regorafenib 24 h (p.o., q.d. × 3 d) after (C) RT2 Gy × 3 f’x and (E) RT9 Gy × 3 f’x. (Figure 1A,B).
A 150 µL blood sample was withdrawn from the jugular vein with a fraction collector at 0.25, 0.5, 0.75, 1, 1.5, 2, 2.5, 3, 3.5 and 4 h, following drug administration. The samples were centrifuged for 10 min, at 4200× g. Then, 50 µL of the resulting plasma was vortexed with 1 mL of ethyl acetate and centrifuged at 5900× g. The upper layer was transferred to a new tube and evaporated to dryness.
The HPLC system included chromatographic pumps (LC-20AT; Shimadzu Co., Kyoto, Japan), an autosampler (SIL-20AC; Shimadzu Co., Kyoto, Japan) and a UV–Vis detector (SPDM20A; Shimadzu Co., Kyoto, Japan). A Waters Acquity C^18 column (50 × 2.1 mm, particle size 1.7 μm, Eclipse XDB, Agilent, Palo Alto, CA, USA) was used for sample analysis. The mobile phase consisted of potassium dihydrogen phosphate (10 mM, pH = 3) and acetonitrile (55:45, v/v). The flow rate was set to 0.2 mL/min, and the injection volume was 5 μL. The temperature in the autosampler was set to 40 °C. The UV–Vis detector scanned from 190 to 300 nm, and the chromatographic profiles were monitored at 265 nm for regorafenib and diethylstilbestrol (internal standard (IS)).
The process for sample extraction was as follows: 50 μL of rat plasma was mixed with internal standard (10 μL, IS, diethylstilbestrol) solution and methanol (140 μL) for protein precipitation. […]

[1] = male, Sprague-Dawley, rat, rat plasma, 16 mg/kg p.o. × 1 d, no RT
[2] = male, Sprague-Dawley, rat, rat plasma, 16 mg/kg p.o. × 3 d, no RT
[3] = male, Sprague-Dawley, rat, rat plasma, RT2 Gy × 1 f'x followed by regorafenib 16 mg/kg p.o. × 1 d (sequential)
[4] = male, Sprague-Dawley, rat, rat plasma, RT2 Gy × 1 f'x with regorafenib 16 mg/kg p.o. × 1 d (concurrent)
[5] = male, Sprague-Dawley, rat, rat plasma, RT2 Gy × 3 f'x followed by regorafenib 16 mg/kg p.o. × 3 d (sequential)
[6] = male, Sprague-Dawley, rat, rat plasma, RT2 Gy × 3 f'x with regorafenib 16 mg/kg p.o. × 3 d (concurrent)
[7] = male, Sprague-Dawley, rat, rat plasma, RT9 Gy × 1 f'x followed by regorafenib 16 mg/kg p.o. × 1 d (sequential)
[8] = male, Sprague-Dawley, rat, rat plasma, RT9 Gy × 1 f'x with regorafenib 16 mg/kg p.o. × 1 d (concurrent)
[9] = male, Sprague-Dawley, rat, rat plasma, RT9 Gy × 3 f'x followed by regorafenib 16 mg/kg p.o. × 3 d (sequential)
[10] = male, Sprague-Dawley, rat, rat plasma, RT9 Gy × 3 f'x with regorafenib 16 mg/kg p.o. × 3 d (concurrent)
[11] = rat plasma, 16 mg/kg p.o. × 1 d, no RT
[12] = rat plasma, 16 mg/kg p.o. × 3 d, no RT
[13] = rat plasma, RT2 Gy × 1 f'x followed by regorafenib 16 mg/kg p.o. × 1 d (sequential)
[14] = rat plasma, RT2 Gy × 1 f'x with regorafenib 16 mg/kg p.o. × 1 d (concurrent)
[15] = rat plasma, RT2 Gy × 3 f'x followed by regorafenib 16 mg/kg p.o. × 3 d (sequential)
[16] = rat plasma, RT2 Gy × 3 f'x with regorafenib 16 mg/kg p.o. × 3 d (concurrent)
[17] = rat plasma, RT9 Gy × 1 f'x followed by regorafenib 16 mg/kg p.o. × 1 d (sequential)
[18] = rat plasma, RT9 Gy × 1 f'x with regorafenib 16 mg/kg p.o. × 1 d (concurrent)
[19] = rat plasma, RT9 Gy × 3 f'x followed by regorafenib 16 mg/kg p.o. × 3 d (sequential)
[20] = rat plasma, RT9 Gy × 3 f'x with regorafenib 16 mg/kg p.o. × 3 d (concurrent)

CNC(=O)c1cc(Oc2ccc(NC(=O)Nc3ccc(Cl)c(C(F)(F)F)c3)c(F)c2)ccn1 [regorafenib, Regorafenib]
Decrease of plasma AUCregorafenib (concurrent RT2 Gy × 1 f'x vs sham RT (regorafenib × 1 d), rat): 33.0% | Decrease of plasma AUCregorafenib (concurrent RT2 Gy × 3 f'x vs regorafenib × 3 d, rat): 74% | Decrease of plasma AUCregorafenib (concurrent RT9 Gy × 3 f'x vs regorafenib × 3 d, rat): 69% and 69.4% | concentration at 180 min (male, Sprague-Dawley, oral, rat plasma collected 180 min after regorafenib 16 mg/kg p.o. alone): 1500 ng/mL | MRT [1]: 24.7 h | Tmax [1]: 3.17 h | half-life [1]: 942 ± 535 min | MRT [2]: 13.7 h | Tmax [2]: 1.5 h | half-life [2]: 550 ± 146 min | MRT [3]: 9.22 h | Tmax [3]: 3 h | half-life [3]: 346 ± 93 min | MRT [4]: 10.8 h | Tmax [4]: 2.75 h | half-life [4]: 409 ± 150 min | MRT [5]: 22.8 h | Tmax [5]: 1.67 h | half-life [5]: 920 ± 956 min | MRT [6]: 9.73 h | Tmax [6]: 2.08 h | half-life [6]: 372 ± 152 min | MRT [7]: 15.6 h | Tmax [7]: 2.58 h | half-life [7]: 608 ± 210 min | MRT [8]: 16.3 h | Tmax [8]: 2.58 h | half-life [8]: 654 ± 445 min | MRT [9]: 14.3 h | Tmax [9]: 1.83 h | half-life [9]: 571 ± 323 min | MRT [10]: 16.4 h | Tmax [10]: 1.63 h | half-life [10]: 662 ± 598 min | Decrease of regorafenib levels (AUC) by a single fraction of RT, concurrent regimen (off-target or SBRT dose, × 1 f'x, concurrent, rat): ~35% | AUCregorafenib, sequential RT2 Gy × 3 f'x relative to concurrent RT2 Gy × 3 f'x (rat plasma): 2.0 fold | Cl [11]: 8.18 ± 3.06 mL/min/kg | Vss [11]: 12641.9 ± 6928.9 mL/kg | Cl [12]: 4.21 ± 1.82 mL/min/kg | Vss [12]: 3604.5 ± 951.1 mL/kg | Cl [13]: 6.19 ± 0.35 mL/min/kg | Vss [13]: 3081.4 ± 773.1 mL/kg | Cl [14]: 16.6 ± 7.21 mL/min/kg | Vss [14]: 21606.9 ± 20731.8 mL/kg | Cl [15]: 8.56 ± 7.21 mL/min/kg | Vss [15]: 4156.0 ± 1959.9 mL/kg | Cl [16]: 23.20 ± 9.45 ^n mL/min/kg | Vss [16]: 12759.6 ± 8467.4 ^p mL/kg | Cl [17]: 3.3 ± 4.3 mL/min/kg | Vss [17]: 2898.8 ± 4123.7 mL/kg | Cl [18]: 34.6 ± 25.3 mL/min/kg | Vss [18]: 30999.0 ± 34618.0 mL/kg | Cl [19]: 11.4 ± 4.5 mL/min/kg | Vss [19]: 7960.3 ± 3023.5 ^r mL/kg | Cl [20]: 19.0 ± 11.7 ^o mL/min/kg | Vss [20]: 11564.4 ± 3361.0 ^q mL/kg | Increase of plasma AUCregorafenib (sequential RT2 Gy × 1 f'x vs regorafenib × 1 d, rat): 182.8% | Decrease of plasma AUCregorafenib (sequential RT2 Gy × 3 f'x vs regorafenib × 3 d, rat): 20.7% | Increase of plasma AUCregorafenib (sequential RT9 Gy × 1 f'x vs regorafenib × 1 d, rat): 213.2% | Decrease of plasma AUCregorafenib (sequential RT9 Gy × 3 f'x vs regorafenib × 3 d, rat): 45.8%
